1 compound from patent US9428478B2, “Piperazine derivatives, compositions, and uses related thereto” (Emory University, priority 2011, dated 2016) can be followed below.

Series [1] in a line: Stability in liver S9-fractions, human. The format is in vitro ADME. The note with it: read-out: Stability in liver S9-fractions (t ½) Human (converted).
Series [2] can be described thus: Stability in liver S9-fractions, mouse. The format is in vitro ADME. Conditions: read-out: Stability in liver S9-fractions (t ½) Mouse (converted).
In the next series the target is Nox1 (Homo sapiens (Human), UniProt Q9Y5S8). The series is described as follows: Nox1 inhibition. The format is biochemical. Conditions: Table 3.
Nox1, sequence (Q9Y5S8 whole entry, species assumed): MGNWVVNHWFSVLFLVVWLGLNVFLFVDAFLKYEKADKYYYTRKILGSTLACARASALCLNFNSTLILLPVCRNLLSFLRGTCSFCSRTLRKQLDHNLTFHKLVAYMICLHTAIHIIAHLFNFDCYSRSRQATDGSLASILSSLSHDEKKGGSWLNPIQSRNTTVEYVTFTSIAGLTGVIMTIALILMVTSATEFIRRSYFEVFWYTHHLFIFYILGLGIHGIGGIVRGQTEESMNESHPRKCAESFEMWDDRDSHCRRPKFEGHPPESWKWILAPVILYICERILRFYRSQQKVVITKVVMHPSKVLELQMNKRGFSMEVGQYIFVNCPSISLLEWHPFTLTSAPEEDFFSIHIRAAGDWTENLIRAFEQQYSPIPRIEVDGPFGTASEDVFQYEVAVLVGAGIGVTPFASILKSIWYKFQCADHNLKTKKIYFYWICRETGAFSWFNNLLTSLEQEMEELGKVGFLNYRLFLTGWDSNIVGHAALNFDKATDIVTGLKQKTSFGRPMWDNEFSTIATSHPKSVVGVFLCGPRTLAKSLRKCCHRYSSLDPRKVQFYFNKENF
Nox1, sequence (P13498 2-195 partner, species assumed): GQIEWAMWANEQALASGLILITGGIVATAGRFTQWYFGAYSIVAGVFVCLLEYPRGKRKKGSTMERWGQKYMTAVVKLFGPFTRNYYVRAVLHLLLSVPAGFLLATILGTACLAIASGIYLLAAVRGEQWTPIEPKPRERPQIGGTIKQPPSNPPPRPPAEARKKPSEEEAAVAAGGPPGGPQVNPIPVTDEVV
The nature of series [3]: Stability in liver S9-fractions, dog. It is filed as in vitro ADME. Conditions: read-out: Stability in liver S9-fractions (t ½) Dog (converted).
A short description of a further series: Solubility. The format is physicochemical.
In series [4] the target is T1, Nox2 (Homo sapiens (Human), UniProt P04839). The series is described as follows: Nox2 assay in human neutrophils (PMN), LO12 luminescence. It is filed as cell-based. The protocol: (§1) Nox2 assay in human neutrophils: Human neutrophils were obtained from healthy volunteers (REF). LO12 luminescence was quantified as above. Nox4 assay using stably transfected HEK cell: HEK cells stably transfected with human Nox4 were incubated with varying concentrations of compound along with LO12.
Target sequence in this assay (P04839 whole entry, looked up): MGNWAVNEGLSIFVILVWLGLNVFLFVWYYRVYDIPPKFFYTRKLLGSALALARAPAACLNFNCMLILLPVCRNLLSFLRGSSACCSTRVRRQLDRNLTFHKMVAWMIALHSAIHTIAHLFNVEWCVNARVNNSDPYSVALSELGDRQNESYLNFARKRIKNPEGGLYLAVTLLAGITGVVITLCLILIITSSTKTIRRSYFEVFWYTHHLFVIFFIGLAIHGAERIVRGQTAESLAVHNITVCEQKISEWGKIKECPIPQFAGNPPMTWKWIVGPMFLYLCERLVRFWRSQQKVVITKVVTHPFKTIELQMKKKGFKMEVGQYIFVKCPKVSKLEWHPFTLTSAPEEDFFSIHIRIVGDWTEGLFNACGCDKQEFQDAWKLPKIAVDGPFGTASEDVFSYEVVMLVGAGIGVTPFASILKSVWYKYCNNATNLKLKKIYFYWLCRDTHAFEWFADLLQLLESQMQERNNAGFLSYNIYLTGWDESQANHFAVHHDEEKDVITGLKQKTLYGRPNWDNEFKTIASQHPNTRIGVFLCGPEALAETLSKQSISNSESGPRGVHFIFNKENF
Target sequence in this assay (P13498 whole entry partner, looked up): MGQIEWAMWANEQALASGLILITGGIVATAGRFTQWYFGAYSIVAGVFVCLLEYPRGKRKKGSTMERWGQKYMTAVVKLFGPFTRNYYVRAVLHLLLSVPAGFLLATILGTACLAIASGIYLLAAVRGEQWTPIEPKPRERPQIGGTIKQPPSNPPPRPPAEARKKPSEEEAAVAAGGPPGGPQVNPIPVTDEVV

The next series deals with xanthine oxidase (Homo sapiens (Human), UniProt P47989). The series is described as follows: Assay control: xanthine oxidase (XO) replaces Nox2 as the source of ROS, LO12 luminescence. It is filed as biochemical. Conditions: Table 2, xanthine oxidase control. The method, then: Assay controls. To rule out interference with either Nox2 or Nox4 luminescence assays, two approaches are used. In one, xanthine oxidase replaces the Nox2 enzymatic system as the source of ROS in the Nox2/LO12 assay. Xanthine is added to initiate the reaction and LO12 luminescence is recorded. In the other, exogenous H2O2 is supplied in place of the Nox4 expressing H2O2-generating cells and luminescence is recorded.
xanthine oxidase, sequence (P47989 whole entry, species assumed): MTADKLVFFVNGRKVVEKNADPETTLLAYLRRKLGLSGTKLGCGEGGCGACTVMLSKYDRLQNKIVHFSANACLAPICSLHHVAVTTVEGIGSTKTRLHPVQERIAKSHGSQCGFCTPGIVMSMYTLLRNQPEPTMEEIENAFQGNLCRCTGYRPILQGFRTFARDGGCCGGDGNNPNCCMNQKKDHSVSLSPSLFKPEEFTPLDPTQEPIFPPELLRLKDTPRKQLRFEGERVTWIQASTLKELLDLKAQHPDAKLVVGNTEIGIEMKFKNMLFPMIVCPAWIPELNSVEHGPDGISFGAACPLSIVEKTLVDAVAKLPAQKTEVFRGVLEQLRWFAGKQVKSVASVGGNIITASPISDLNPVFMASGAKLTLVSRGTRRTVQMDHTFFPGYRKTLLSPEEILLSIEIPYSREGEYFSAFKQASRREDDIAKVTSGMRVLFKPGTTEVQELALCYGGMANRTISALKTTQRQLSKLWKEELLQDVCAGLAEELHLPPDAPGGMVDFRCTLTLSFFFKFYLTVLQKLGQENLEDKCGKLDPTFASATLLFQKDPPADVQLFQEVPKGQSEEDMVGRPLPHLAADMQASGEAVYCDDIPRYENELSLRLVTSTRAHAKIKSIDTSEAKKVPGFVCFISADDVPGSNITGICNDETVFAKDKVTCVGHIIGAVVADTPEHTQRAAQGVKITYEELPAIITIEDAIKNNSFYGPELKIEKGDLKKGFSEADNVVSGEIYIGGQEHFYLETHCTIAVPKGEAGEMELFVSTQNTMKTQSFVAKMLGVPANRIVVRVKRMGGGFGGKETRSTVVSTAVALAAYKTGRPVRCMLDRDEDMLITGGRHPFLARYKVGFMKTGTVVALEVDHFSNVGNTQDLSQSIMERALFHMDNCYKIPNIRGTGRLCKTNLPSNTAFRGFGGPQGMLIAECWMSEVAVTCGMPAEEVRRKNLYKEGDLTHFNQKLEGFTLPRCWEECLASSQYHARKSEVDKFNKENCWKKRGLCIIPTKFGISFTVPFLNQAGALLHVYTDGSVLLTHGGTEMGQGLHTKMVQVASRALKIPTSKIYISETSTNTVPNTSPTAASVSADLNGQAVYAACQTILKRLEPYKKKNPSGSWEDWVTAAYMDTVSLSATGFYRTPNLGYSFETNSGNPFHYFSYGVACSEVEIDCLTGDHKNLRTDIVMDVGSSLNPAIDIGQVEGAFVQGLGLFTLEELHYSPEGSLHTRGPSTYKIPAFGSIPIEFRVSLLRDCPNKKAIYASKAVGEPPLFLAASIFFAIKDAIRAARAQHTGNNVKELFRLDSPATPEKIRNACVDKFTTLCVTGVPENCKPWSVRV

Series [5] has as its target T1, Nox2. The series is described as follows: Nox2 activity assay for primary screening (cell free, human neutrophil plasma membranes, LO12 luminescence). The format is biochemical. The method, then: Nox2 activity assay for primary screening: Plasma membranes were prepared from human neutrophils, which express large amounts of Nox2, stored at −80 C until use. See Curnutte et al., J. Biol. Chem. 1987, 262, 6450-6452, hereby incorporated by reference. Membranes are mixed with recombinant, purified cytosolic regulatory proteins (p67Np47N chimera, and a constitutively active mutant of Rac, Rac1(Q61)) and FAD, along with varying concentrations of compound, and LO12, which emits light when it reacts with ROS. The reaction is initiated by addition of NADPH and SDS (an artificial activator of Nox2).
Target sequence in this assay (P04839 2-570): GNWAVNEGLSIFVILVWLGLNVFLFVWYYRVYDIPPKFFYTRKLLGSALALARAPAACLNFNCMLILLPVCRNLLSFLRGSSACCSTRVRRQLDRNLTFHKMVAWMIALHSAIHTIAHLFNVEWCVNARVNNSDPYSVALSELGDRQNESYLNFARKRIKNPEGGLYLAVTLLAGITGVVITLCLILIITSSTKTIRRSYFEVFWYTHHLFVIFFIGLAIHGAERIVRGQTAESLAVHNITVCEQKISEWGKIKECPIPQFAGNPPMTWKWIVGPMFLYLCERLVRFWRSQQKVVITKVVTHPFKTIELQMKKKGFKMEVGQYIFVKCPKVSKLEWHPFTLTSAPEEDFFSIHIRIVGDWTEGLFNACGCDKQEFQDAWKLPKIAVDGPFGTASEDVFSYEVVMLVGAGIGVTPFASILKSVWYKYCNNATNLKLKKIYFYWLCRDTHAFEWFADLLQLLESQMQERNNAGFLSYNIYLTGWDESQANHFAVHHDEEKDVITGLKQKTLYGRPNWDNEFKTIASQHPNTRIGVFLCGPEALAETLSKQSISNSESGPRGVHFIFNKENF

A further series addresses human Nox4 (Homo sapiens (Human), UniProt Q9NPH5). The series is described as follows: Nox4 assay using stably transfected HEK cells. The format is cell-based. The method, then: as §1
Nox4 produces hydrogen peroxide rather than superoxide; under these conditions LO12 luminesces only after the addition of horseradish peroxidase to initiate the reaction.

human Nox4, sequence (Q9NPH5 whole entry): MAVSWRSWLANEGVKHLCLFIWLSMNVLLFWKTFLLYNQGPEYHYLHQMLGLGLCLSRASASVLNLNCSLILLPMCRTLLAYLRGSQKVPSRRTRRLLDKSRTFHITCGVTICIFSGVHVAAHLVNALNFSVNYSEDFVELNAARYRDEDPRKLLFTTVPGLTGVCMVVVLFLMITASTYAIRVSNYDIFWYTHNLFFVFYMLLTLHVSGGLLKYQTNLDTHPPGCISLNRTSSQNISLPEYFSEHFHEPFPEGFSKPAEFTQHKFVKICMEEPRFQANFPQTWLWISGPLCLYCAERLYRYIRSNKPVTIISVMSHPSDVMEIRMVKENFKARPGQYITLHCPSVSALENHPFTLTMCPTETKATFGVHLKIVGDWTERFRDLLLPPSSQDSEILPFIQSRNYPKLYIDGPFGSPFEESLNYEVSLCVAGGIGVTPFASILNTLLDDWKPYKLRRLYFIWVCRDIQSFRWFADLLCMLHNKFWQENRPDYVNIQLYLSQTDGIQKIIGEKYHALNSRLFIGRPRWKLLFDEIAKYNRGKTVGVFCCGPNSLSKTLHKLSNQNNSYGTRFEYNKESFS
human Nox4, sequence (P13498 2-195 partner): as the sequence (P13498 2-195 partner, species assumed) above

As for `COc1ccc(N2CCN(C(=O)c3cc4cc(C(C)=O)ccc4[nH]3)CC2)cc1` [TG6-161, 1-(2-(4-(4-methoxyphenyl)piperazine-1-carbonyl)-1H-indol-5-yl)ethanone], the half-life in series [1] is 0.75 h; in series [2], 3 h; in [3] it was 2 h. Further, the IC50 against Nox1 was 600 nM; on Nox2 [4] (Table 3, human neutrophils, read-out: Nox2 (PMN)), 200 nM; on Nox2 [4] (read-out: IC50, ROS production in human neutrophils), 200 to 300 nM; at xanthine oxidase it was over 20000 nM; at Nox2 [5] (Table 2, read-out: IC50 Nox2), 400 nM; on Nox2 [5] (Table 3, read-out: Nox2 (Cell Free)), 300 nM. Moreover, the IC50 was 200 to 300 nM at Nox2 [5] (read-out: IC50, Nox2 cell free system) and 20000 to 30000 nM against human Nox4 (using two different assays). The same compound registered a solubility in the series “Solubility” of under 25 µM. On human Nox4, the “selectivity for Nox2 compared with Nox4” value is listed as at least 100 fold.
